In patent publication US20240099295A1, “CELL TREATMENT AGENT” (AYA Inc., priority 2021, published 2024):

System: Chinese hamster fibroblasts
Experiment: Cell detaching and suspending effect (Experimental Example 4)
Assay type: cell-based
Settings: same experiment as Table 13 with Chinese hamster fibroblasts

## dextran sulfate [DS]
  Detachment and suspension of adherent cells: equivalent results were obtained
